Test results as given in US11957671B2, “Benzodioxane modulators of leukotriene A4 hydrolase (LTA4H) for prevention and treatment of aging-associated diseases” (Alkahest, Inc., priority 2021, dated 2024).

Experiments:
human LTA4 hydrolase = human LTA4 hydrolase (Homo sapiens (Human), UniProt P09960); assay: LTA4H Enzyme assay (cleavage of Arg-AMC); assay type: biochemical; details: LTA4H 1 nM, Arg-AMC 50 μM, room temperature 1 h
Method: The compounds of the invention are assessed for the ability to interact with human LTA4 hydrolase in an enzymatic assay that measures the ability of the enzyme to cleave the peptide bond of arginyl-aminomethylcoumarin (Arg-AMC). LTA4H Enzyme (1 nM final), Arg-AMC substrate (50 μM final), and compound are combined in a reaction buffer (50 mM Tris-HCl (pH 7.5), 100 mM KCl, 0.5% bovine serum albumin) at room temperature for 1 h. The formation of product is assessed by measuring the fluorescence of aminomethylcoumarin product (excitation wavelength 380 nm/emission wavelength 460 nm).

[1] = system: synthesis of LTB4 in human whole blood; assay: human whole blood (HWB) assay, LTB4 production inhibition; assay type: cell-based; details: calcimycin 20 μM
Method: The compounds of the invention are additionally tested in a human whole blood (HWB) assay to determine their ability to inhibit the synthesis of LTB4 in a cellular system. Compounds are combined with heparinized human whole blood and incubated for 15 minutes at 37° C. Calcimycin (20 μM final, prepared in phosphate-buffered saline, pH 7.4) is then added and the mixture is incubated for another 30 minutes at 37° C. The samples are centrifuged for 5 min at low speed (1500×g) and the plasma layer is removed. Plasma LTB4 concentrations are then measured using an antibody-based homogenous time-resolved fluorescence method (CisBio, Bedford, Mass.). In general, the preferred potency range (IC50) of compounds in the HWB assay is between 10 nM to 10 μM, the more preferred potency range is 10 nM to 1 μM, and the most preferred potency range is 10 nM to 100 nM.

human LTA4 hydrolase, sequence (P09960 whole entry): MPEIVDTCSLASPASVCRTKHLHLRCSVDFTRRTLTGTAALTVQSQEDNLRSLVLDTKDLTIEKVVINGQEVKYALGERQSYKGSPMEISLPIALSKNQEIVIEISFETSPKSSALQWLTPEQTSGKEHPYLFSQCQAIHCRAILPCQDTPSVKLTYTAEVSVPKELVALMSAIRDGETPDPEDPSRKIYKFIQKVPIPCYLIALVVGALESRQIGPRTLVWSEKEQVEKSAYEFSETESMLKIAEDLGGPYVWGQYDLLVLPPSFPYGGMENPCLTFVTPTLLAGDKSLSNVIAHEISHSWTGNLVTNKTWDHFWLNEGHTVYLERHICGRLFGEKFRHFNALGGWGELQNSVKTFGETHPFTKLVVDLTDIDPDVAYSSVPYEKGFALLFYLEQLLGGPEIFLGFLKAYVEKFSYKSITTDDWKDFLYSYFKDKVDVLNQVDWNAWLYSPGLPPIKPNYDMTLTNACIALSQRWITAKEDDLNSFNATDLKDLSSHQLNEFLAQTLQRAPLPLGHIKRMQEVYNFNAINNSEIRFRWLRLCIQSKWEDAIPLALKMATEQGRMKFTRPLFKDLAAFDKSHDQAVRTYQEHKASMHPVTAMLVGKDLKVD

Compound	IC50 (human LTA4 hydrolase) [nM]	IC50 [1] [nM]
c1cnc2c(c1)OCC(c1ccc(CN3CCCC3)cc1)O2 (stereo not drawn) [Example 15, 3-[4-(pyrrolidin-1-ylmethyl)phenyl]-2,3-dihydro[1,4]dioxin[2,3-b]pyridine]	0.77	–
c1ccc2c(c1)OCC(c1ccc(CN3CCn4cnnc4C3)cc1)O2 (stereo not drawn) [Example 16, 7-[4-(2,3-dihydro-1,4-benzodioxin-2-yl)benzyl]-5,6,7,8-tetrahydro[1,2,4,]triazolo[4,3-a]pyrazine]	1.14	–
CC(=O)N1CCC(N(C)Cc2ccc([C@H]3COc4ccccc4O3)cc2)CC1 [Example 14]	2.32	155

Now from value to compound:

IC50 (human LTA4 hydrolase) [nM]	IC50 [1] [nM]	Compound
40.1	–	c1ccc2c(c1)OC[C@@H](c1ccc(CN3CCOCC3)cc1)O2 [Example 199, 4-{4-[(2R)-2,3-dihydro-1,4-benzodioxin-2-yl]benzyl}morpholine]
0.73	–	O=S1(=O)CCN(Cc2ccc(C3COc4cccnc4O3)cc2)CC1 (stereo not drawn) [Example 17, 3-{4-[(1,1-dioxidothiomorpholin-4-yl)methyl]phenyl}-2,3-dihydro[1,4]dioxino[2,3-b]pyridine]
